Measurements: patent publication US20180036314A1, “METHODS AND COMPOSITIONS FOR TREATING PERIPHERAL VASCULAR DISEASE” (Exodos Life Sciences Limited Partnership, priority 2009, published 2018)

How the values were obtained:
[1] = tested on: pig skin; test: Local cutaneous blood flow in pigs after topical application (laser Doppler); assay type: in vivo; settings: for Local cutaneous blood flow, FLOW (MV), 10 min. after treatment / Local cutaneous blood flow, FLOW (MV), 20 min. after treatment / Local cutaneous blood flow, FLOW (MV), 30 min. after treatment / Local cutaneous blood flow, FLOW (MV), 60 min. after treatment / Local cutaneous blood flow, FLOW (MV), 120 min after treatment / Local cutaneous blood flow, FLOW (MV), 180 min. after treatment: topical
Protocol: A stable depth of sedation was maintained with continuous intravenous methohexital, titrated to a minimal lid reflex and a regular respiratory rate. Throughout the experiment, the animals spontaneously breathed through a “snout-cone” connected to a standard anesthesia machine delivering 100% oxygen. The dorsal surface of the animal was cleaned with tepid water. Ten sites (2×2 cm each) were defined on the dorsal surface of the animal with permanent marker. […] MAP was recorded at the start and end of each Doppler scan. A dose volume of 0.1 mL of vehicle, control, or test article was applied to each site. L-arginine monohydrate and sildenafil citrate were prepared in commercially available Veecogel Cream base formulation (available from PCCA, 9901 South […], Houston, Tex., USA) containing […], Coconut oil, Capryloic Acid, […], Squalane, Boric Acid, Polysorbate 80, Sorbitan Monooleate 80, Simethicone, Butylated hydroxytoluene. Sildenafil citrate 1% was dissolved in propylene glycol 2% and combine with base with constant mixing. L-arginine monohydrate 10% and 1% were dissolved in 2% propylene glycol and combined with the Veecogel described above. No two adjacent sites were administered the same concentration of any control or test article and administration was temporally spaced to allow at least 2 minutes between dosing each site. […] Applications were made in the same order and over the same time span as the baseline blood flow measurements. […] Blood flow at the untreated, control site was measured immediately prior to and immediately after the measurements at the treated sites. These two measurements were averaged to obtain the control blood flow for each interval. Serum levels of local drugs were not measured. Regional differences in blood flow were accounted for by normalizing the measurements of flow made after injection of a test solution to the baseline flow at the site prior to application. Changes in blood flow are expressed as a percent change from control blood flow. Variations in skin blood flow over the course of the experiment were accounted for by normalizing the changes in blood flow at a given site to the changes in blood flow at a control site. Thus, the change in cutaneous blood flow at a treatment site can be determined by the formula: [formula] where Sx is the blood flow at an injected site X min after application, So is the baseline flow at that site prior to application, Cx is the flow at the control site X min after the application, and Co is the blood flow at the control site at the same time that the baseline flow measurements were made.

[2] = tested on: hands of normal human volunteers; test: Skin temperature recovery of the hand after cold water immersion (infrared camera); assay type: in vivo; settings: topical, acclimation at 25° C.
Protocol: The effects of L-arginine and sidelnafil citrate in the regulation of human blood flow was determined by measuring the rate of skin temperature recovery in the hands of normal human volunteers following a period of cold water immersion. The measurements were performed at room temperature 25° C., for a period of 30 minutes after acclimatization. L-arginine monohydrate and sildenafile citrate were prepared in commercially available Veecogel Cream base formulation containing Krisgel 100™, Coconut oil, Capryloic Acid, Triglicerides, Squalane, Boric Acid, Polysorbate 80, Sorbitan Monooleate 80, Simethicone, Butylated hydroxytoluene. Sildenafil citrate 1% was dissolved in propylene glycol 2% and combine with base with constant mixing. L-arginine monohydrate 10% and 1% were dissolve in 2% propylene glycol and combine with the Veecogel described above.
Skin temperature was measured with an infrared camera FLIR T300 (FLIR Systems, Inc., Boston, Mass., USA). Changes in skin temperature were determined after cooling of hand for 2 minutes in ice water by analyzing individual thermal images with FLIR Quick Report software. The effects of test drugs were determined following application of substance to the cooled hand. Thermal images of a patient receiving the control treatment and of a patient receiving the combination treatment were taken at 0, 5, and 15 minutes after treatment, and are shown in FIGS. 1A and 1B, respectively.

[3] = tested on: patients with secondary Raynaud's phenomenon; settings: oral 50 mg twice daily for 4 weeks, cited from earlier work
[4] = tested on: patients with Raynaud's phenomenon; settings: cited from earlier work
[5] = tested on: patients with Raynaud's phenomenon secondary to scleroderma; settings: in vivo; cited from earlier work
[6] = tested on: primary Raynaud's symptoms; settings: in vivo; cited from earlier work
[7] = tested on: patient suffering from Raynaud's phenomenon secondary to chemotherapy; settings: single patient; equipotent doses; cited from earlier work
[8] = in vivo; cited from earlier work
[9] = tested on: patients with scleroderma and lupus; settings: in vivo; cited from earlier work
[10] = tested on: vasospastic attacks and peripheral blood flow; settings: oral 20 mg 2 or 3 times per week during 4 weeks; compared to pentoxifylline 600 mg b.i.d.; cited from earlier work

N=C(N)NCCC[C@H](N)C(=O)O [Arginine, L-arginine]
Effect on dermal blood flow ([1]; topical application): increased dermal blood flow in a dose and time dependent manner
Local cutaneous blood flow, FLOW (MV), 10 min. after treatment ([1]; dose 1%): 0.41 MV
Local cutaneous blood flow, FLOW (MV), 20 min. after treatment ([1]; dose 1%): 12.47 MV
Local cutaneous blood flow, FLOW (MV), 30 min. after treatment ([1]; dose 1%): 5.55 MV
Local cutaneous blood flow, FLOW (MV), 60 min. after treatment ([1]; dose 1%): 2.71 MV
Local cutaneous blood flow, FLOW (MV), 120 min after treatment ([1]; dose 1%): 7.91 MV
Local cutaneous blood flow, FLOW (MV), 180 min. after treatment ([1]; dose 1%): 10.26 MV
Local cutaneous blood flow, FLOW (MV), 10 min. after treatment ([1]; dose 10%): 19.82 MV
Local cutaneous blood flow, FLOW (MV), 20 min. after treatment ([1]; dose 10%): 21.88 MV
Local cutaneous blood flow, FLOW (MV), 30 min. after treatment ([1]; dose 10%): 22.07 MV
Local cutaneous blood flow, FLOW (MV), 60 min. after treatment ([1]; dose 10%): 38.45 MV
Local cutaneous blood flow, FLOW (MV), 120 min after treatment ([1]; dose 10%): 40.21 MV
Local cutaneous blood flow, FLOW (MV), 180 min. after treatment ([1]; dose 10%): 38.72 MV
Change in skin temperature from baseline, 1 min. ([2]; dose 10% W/v): 2.5 °C
Change in skin temperature from baseline, 2 min. ([2]; dose 10% W/v): 4 °C
Change in skin temperature from baseline, 5 min. ([2]; dose 10% W/v): 5 °C
Change in skin temperature from baseline, 10 min. ([2]; dose 10% W/v): 9.5 °C
Change in skin temperature from baseline, 15 min. ([2]; dose 10% W/v): 11.5 °C

CCCc1nn(C)c2c(=O)[nH]c(-c3cc(S(=O)(=O)N4CCN(C)CC4)ccc3OCC)nc12 [Sildenafil, 5-[2-ethoxy-5-(4-methyl-1-piperazinylsulphonyl)phenyl]-1-methyl-3-n-propyl-1,6-dihydro-7H-pyrazolo[4,3-d]pyrimidin-7-one]
Effect on blood flow ([1]; topical concentration of 1% in Veecogel cream base): increased blood flow in the areas of application
Local cutaneous blood flow, FLOW (MV), 10 min. after treatment ([1]; dose 1%): −10.31 MV
Local cutaneous blood flow, FLOW (MV), 20 min. after treatment ([1]; dose 1%): −3.51 MV
Local cutaneous blood flow, FLOW (MV), 30 min. after treatment ([1]; dose 1%): −1.57 MV
Local cutaneous blood flow, FLOW (MV), 60 min. after treatment ([1]; dose 1%): 1.58 MV
Local cutaneous blood flow, FLOW (MV), 120 min after treatment ([1]; dose 1%): 3.15 MV
Local cutaneous blood flow, FLOW (MV), 180 min. after treatment ([1]; dose 1%): 15.73 MV
Change in skin temperature from baseline, 1 min. ([2]; dose 1% W/v): 1 °C
Change in skin temperature from baseline, 2 min. ([2]; dose 1% W/v): 4 °C
Change in skin temperature from baseline, 5 min. ([2]; dose 1% W/v): 6.5 °C
Change in skin temperature from baseline, 10 min. ([2]; dose 1% W/v): 8.5 °C
Change in skin temperature from baseline, 15 min. ([2]; dose 1% W/v): 12.5 °C
Digital ulcers in patients who had digital ulcers at baseline [3]: ulcer healing was observed
Increase in mean capillary flow velocity [3]: more than 4 fold
Frequency and duration of Raynaud's attacks ([3]; compared to placebo): reduction in the frequency and duration of Raynaud's attacks compared to placebo
Increase in forearm blood flow ([4]; oral, after treatment): 75%
Patients with a reduction in pain and frequency of Raynaud's phenomenon attacks [5]: 80%
Patients with digital ulcer healing (of those with digital ulcers at baseline) [5]: 75%
Primary Raynaud's symptoms [6]: failed to improve primary Raynaud's symptoms
Response of Raynaud's symptoms and capillary blood flow [7]: did not respond
Half-life [8]: 3.8 h

CN1CC(=O)N2[C@H](c3ccc4c(c3)OCO4)c3[nH]c4ccccc4c3C[C@@H]2C1=O [tadalafil, (6R,12aR)-2,3,6,7,12,12a-hexahydro-2-methyl-6-(3,4-methylenedioxyphenyl)-pyrazino[2′,1′:6,1]pyrido[3,4-b]indole-1,4-dione]
Raynaud's symptoms [9]: reduced Raynaud's symptoms
Peripheral blood flow at the end of the treatment period [10]: increased peripheral blood flow
Vasospastic attack frequency and duration [10]: significant reduction in vasospastic attack frequency and duration
Response of Raynaud's symptoms and capillary blood flow [7]: improved Raynaud's symptoms and increased capillary blood flow

Cc1c(C)c2c(c(C)c1O)CC[C@@](C)(CCC[C@H](C)CCC[C@H](C)CCCC(C)C)O2 [α-tocopherol]
Effects on blood flow parameters ([4]; comparator arm): no effects on blood flow parameters
